Among the test systems are SK-MEL-28 melanoma; BT-549 breast; KM12 colon; HOP-62 NSCLC; SR leukemia; HCT-116 colon; OVCAR-3 ovarian; U251 CNS; SNB-19 CNS; MOLT-4 leukemia.
Holding throughout (experiment): growth of human tumour cells (NCI), 48 h

Results on 13 molecules are retold here after PubChem BioAssay (NCI).

Each structure is given as a SMILES string. “And” between values parts separate entries of the source, which are not always exact repeats. Equal entries are not always repeated.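 Cells were grown in 96-well plates and exposed to each compound for 48 hours at five concentrations; endpoints were interpolated linearly between bracketing concentrations, or set to the highest concentration if not reached. At the GI50, growth is halved. TGI denotes the concentration required for complete inhibition of growth.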

In the case of `CC1(C)OC[C@@H](/C=C\CCO[Si](c2ccccc2)(c2ccccc2)C(C)(C)C)N1C(=O)c1ccccc1`, the TGI with SK-MEL-28 melanoma is above 100 µM; in the assay on BT-549 breast, above 100 µM; in the assay with KM12 colon, 34.6 µM; with HOP-62 NSCLC it was above 100 µM; in the assay on SR leukemia, 23.7 µM; in the assay with HCT-116 colon, 21.4 µM. Moreover, the TGI in the assay on OVCAR-3 ovarian is 30.5 µM; in the assay on U251 CNS, 45.5 µM; in the assay on SNB-19 CNS, above 100 µM; in the assay with MOLT-4 leukemia, 47.1 µM.

Turning to `Oc1ccc2ccccc2c1-c1nnc(CCCCCCCCc2nnc(-c3c(O)ccc4ccccc34)o2)o1`, the GI50 in the assay with SK-MEL-28 melanoma is above 25 µM; in the assay on KM12 colon, 3.96 µM; with HOP-62 NSCLC it was above 25 µM; in the assay on SR leukemia, 1.6 µM and 0.28 µM; with HCT-116 colon it was 0.796 µM; with OVCAR-3 ovarian, 0.135 µM. In addition, the GI50 in the assay with U251 CNS is 17.2 µM; in the assay on SNB-19 CNS, 17.6 µM; in the assay with MOLT-4 leukemia, 0.0812 µM. Moreover, the TGI with SK-MEL-28 melanoma was above 68.5 µM; in the assay on BT-549 breast, above 100 µM; in the assay on KM12 colon, 25 µM and > 100 µM; in the assay on HOP-62 NSCLC, > 25 µM and 12.4 µM; with SR leukemia it was 25 µM and 11.9 µM; in the assay with HCT-116 colon it was 13.7 µM and > 50.3 µM. The TGI in the assay with U251 CNS is 25 µM and > 63.8 µM; in the assay with SNB-19 CNS, 25 µM and > 100 µM.

As to `N#Cc1c(=O)c2cccnc2n2c1[nH]c1ccccc12`, the TGI in the assay with SK-MEL-28 melanoma, with BT-549 breast, in the assay with KM12 colon, in the assay on HOP-62 NSCLC, in the assay with SR leukemia and with HCT-116 colon was above 100 µM throughout. For the same molecule, the TGI in the assay with OVCAR-3 ovarian, with U251 CNS, in the assay on SNB-19 CNS and in the assay on MOLT-4 leukemia was above 100 µM throughout.

On to `CCCCCCCCCCCCCCCCP(=O)(O)OP(=O)(O)OCC1OC(n2ccc(N)nc2=O)C(O)C1O` (stereo not given), for which the TGI is above 100 µM in the assay on SK-MEL-28 melanoma; above 100 µM with BT-549 breast; above 100 µM in the assay on KM12 colon; 97.3 µM and 44.6 µM in the assay on HOP-62 NSCLC; 23.7 µM in the assay on SR leukemia; > 100 µM and 37.4 µM with HCT-116 colon. The TGI was above 100 µM with OVCAR-3 ovarian; > 100 µM and 38 µM with U251 CNS; above 100 µM in the assay with SNB-19 CNS; > 100 µM and 22.7 µM in the assay on MOLT-4 leukemia. The GI50 in the assay with BT-549 breast was > 100 µM and 24.3 µM; in the assay with HOP-62 NSCLC, 31.5 µM and 4.41 µM; in the assay on U251 CNS it was 43.1 µM and 13.5 µM; in the assay on SNB-19 CNS, 70.5 µM and 16.1 µM.

With `C=CCc1c(O)c2ccccc2[nH]c1=O`, the TGI in the assay with SK-MEL-28 melanoma, with BT-549 breast, in the assay on KM12 colon, in the assay on HOP-62 NSCLC, with SR leukemia and in the assay on HCT-116 colon was above 100 µM in each case. Further, the TGI in the assay on OVCAR-3 ovarian, in the assay on U251 CNS, with SNB-19 CNS and with MOLT-4 leukemia was above 100 µM each time.

Take `COc1cc(C2C(Cl)C(=O)N2c2ccc(Br)cc2)cc(I)c1O` (stereo not given): the TGI in the assay on BT-549 breast, in the assay on KM12 colon, with HOP-62 NSCLC, with SR leukemia, in the assay on HCT-116 colon and with OVCAR-3 ovarian was above 100 µM each time. The TGI in the assay on U251 CNS, in the assay on SNB-19 CNS and in the assay on MOLT-4 leukemia was above 100 µM throughout.

For `O=C1CSC2(CC(/C=C/C=C/c3ccccc3)=NN2c2cccc(S(=O)(=O)O)c2)N1c1nc2ccccc2s1` (stereo not given), the TGI was above 100 µM in the assay on SK-MEL-28 melanoma; above 100 µM with BT-549 breast; above 100 µM in the assay with KM12 colon; 60.1 µM with SR leukemia; above 100 µM in the assay on HCT-116 colon; 74.4 µM in the assay on U251 CNS. Further, the TGI in the assay on SNB-19 CNS is above 100 µM; in the assay with MOLT-4 leukemia, 67.1 µM.

As for `C=C(CCOC)CCC1CCCCC(=C)C1=O` (stereo not given), the TGI in the assay with SK-MEL-28 melanoma, in the assay on BT-549 breast, with KM12 colon, in the assay with HOP-62 NSCLC, in the assay on SR leukemia and in the assay with HCT-116 colon was above 100 µM throughout. Also, the TGI in the assay with OVCAR-3 ovarian, in the assay with U251 CNS, in the assay on SNB-19 CNS and in the assay on MOLT-4 leukemia was above 100 µM throughout.

As for `CSc1c(C(C)=O)c(O)n(-c2ccc(Cl)cc2)c(=O)c1C#N`, the TGI in the assay on SK-MEL-28 melanoma, in the assay on BT-549 breast, with KM12 colon, in the assay with SR leukemia, in the assay with HCT-116 colon and in the assay with OVCAR-3 ovarian was above 100 µM in each case. The TGI was above 100 µM in the assay on U251 CNS, above 100 µM in the assay with SNB-19 CNS and 55.3 µM with MOLT-4 leukemia.

Turning to `CC(=O)N(C(C)=O)n1c(Cc2ccc(Cl)cc2)nn(C(C)=O)c1=O`, the TGI in the assay on SK-MEL-28 melanoma, with BT-549 breast, in the assay with KM12 colon, in the assay with HOP-62 NSCLC, in the assay on SR leukemia and with OVCAR-3 ovarian was above 100 µM throughout. Besides, the TGI in the assay with U251 CNS, in the assay on SNB-19 CNS and in the assay with MOLT-4 leukemia was above 100 µM each time.

Consider `C/C(=N\N=C(N)N)c1c(C(=O)OCCCCCCOC(=O)c2nc3sccn3c2/C(C)=N/N=C(N)N)nc2sccn12`, for which the TGI in the assay with SK-MEL-28 melanoma was above 100 µM; with BT-549 breast, above 100 µM; in the assay on KM12 colon, above 100 µM; in the assay on SR leukemia it was 41.2 µM; in the assay on HCT-116 colon, above 100 µM; with U251 CNS, above 100 µM. The TGI with SNB-19 CNS and with MOLT-4 leukemia was above 100 µM each time.

For `CCCCCCCCCCCCC(=O)NCC(=O)NC(Cc1ccccc1)C(=O)Oc1ccc([N+](=O)[O-])cc1` (stereo not given), the TGI with BT-549 breast, with KM12 colon, in the assay on HOP-62 NSCLC, in the assay with SR leukemia, in the assay with HCT-116 colon and in the assay on OVCAR-3 ovarian was above 100 µM throughout. Besides, in the assay on SNB-19 CNS, the TGI is above 100 µM.

As to `CN(C)c1ccc(-c2nc(-c3cc4c(ccc5ccccc54)oc3=O)cs2)cc1`, the TGI in the assay on SK-MEL-28 melanoma, with BT-549 breast, in the assay on KM12 colon, with HOP-62 NSCLC, in the assay on SR leukemia and in the assay with HCT-116 colon was above 100 µM in each case. The TGI in the assay with U251 CNS, in the assay with SNB-19 CNS and with MOLT-4 leukemia was above 100 µM in each case.
